Measurements: patent publication US20100099630A1, “Method for improving ventilatory efficiency” (priority 2004, published 2010)

Experiments:
Format in all cases: in vivo, human
patients having CHF = assay: Ventilatory efficiency during cardiopulmonary exercise testing, CHF patients
Method: Ventilatory efficiency has been critically shown to be the most powerful, independent predictor of CHF patient survival. Ventilatory efficiency (VE) is determined by the linear, submax relationship between Minute Ventilation (V) and carbon dioxide output (VCO2), V being on the “y axis” and the linear slope being determined using the linear regression model, y=a+bx, “b” representing the slope. The steeper the slope, the worse the ventilation efficiency of the patient. As an exemplar cohort of patients with reduced ventilatory efficiency, patients suffering from CHF were recruited. Patients having CHF were selected according to the following criteria: • Male and female 48-84 years of age. • Ejection fraction 30-72% • NY Class III-IV (severe condition). • Test and control groups matched for pre-operative volume status, cardiac medication, measured risk assessment. The test group was administered D-ribose, 15 grams tid for eight weeks; the controls received 15 grams Dextrose tid. All patients in this group underwent repeated cardiopulmonary exercise using a four-minute sub-maximal step protocol. Patients were tested on a step apparatus. Others in the study were tested on a treadmill with varied grade or on drug-driven exercise simulation for those patients unable to use the other two devices. Symptom-limited peak exercise performance with at least 80-85% of age related maximal heart rate was attempted with each patient. Upper extremity blood pressure was obtained at every two minutes and also at peak exercise. Patients were tested on a treadmill with varying grade, on a step apparatus or with simulated drug-driven exercise simulation for those patients unable to exercise physically. VCO2 and VO2max before and after exercise was measured and VE calculated. The methodology is described in Circulation: www.circulationaha.org Ponikowski et al. Ventilation in Chronic Heart Failure, Feb. 20, 2001, the teachings of which are incorporated by reference. Ventilatory efficiency, VO2 and O2 pulse were assessed up to the anaerobic threshold at baseline and again at eight weeks. Weber function class was also determined based on VO2 at the anaerobic threshold (AT). The results for the first group of test patients (2 females and 13 males) are summarized in Table I. “R” designates D-ribose. Each patient acted as his or her control, that is, results after ribose administration were compared to baseline results. VO2 efficiency is the O2 uptake per unit time. O2 pulse is a measurement of the heart stroke volume.

[1] = system: representative patients (coronary artery disease / CHF cohort); assay: Exercise testing of representative individual patients (treadmill, step test, drug-driven simulated exercise)
Method: Patients were tested on a treadmill with varying grade, on a step apparatus or with simulated drug-driven exercise simulation for those patients unable to exercise physically. VCO2 and VO2max before and after exercise was measured and VE calculated. The methodology is described in Circulation: www.circulationaha.org Ponikowski et al. Ventilation in Chronic Heart Failure, Feb. 20, 2001, the teachings of which are incorporated by reference. Ventilatory efficiency, VO2 and O2 pulse were assessed up to the anaerobic threshold at baseline and again at eight weeks. Weber function class was also determined based on VO2 at the anaerobic threshold (AT). The results for the first group of test patients (2 females and 13 males) are summarized in Table I. “R” designates D-ribose. Each patient acted as his or her control, that is, results after ribose administration were compared to baseline results. VO2 efficiency is the O2 uptake per unit time. O2 pulse is a measurement of the heart stroke volume. A person, normal weight, was diagnosed with blockage of the coronary arteries with stable angina, not yet progressing to congestive heart failure. […] Using a treadmill, with incremental increase in grade, their VO2 max and VCO2 were determined. Following eight weeks of ribose administration of five grams four times a day, they were retested under the same conditions. Plotting a regression analysis of VO2 versus log V, the VE slope decreased from 60.2 to 45.5. It is considered that a slope of 36.9 or below indicates impairment of ventilatory efficiency. Therefore, while this patient was not in the normal range of ventilatory efficiency, improvement was marked. A second patient, a person of normal weight, self administered five grams of ribose four times a day for eight weeks. At the beginning of the study, their VE slope was 55.7 following nine minutes of submaximal exercise. At the end of the study, their VE slope had decreased to 45.2. This patient also was tested on the step test. The initial test was rated as “good” and the second test was subjectively considered to be “great.” A third patient, an obese person, was on nasal oxygen and was tested with drug-driven simulated exercise. […] Although their VE was now in the normal range, the test results, although improved were not subjectively rated as “good”.

[2] = system: patient with rheumatoid lung; assay: Ventilatory efficiency in rheumatoid lung, case report; settings: person, ribose approximately five grams two to three times a day, within a month
From the text: A person developed rheumatoid arthritis in the 1970's. By 1988, they began to show symptoms of rheumatoid lung, began the use of rescue inhalers such as Albuterol® inhaler and was hospitalized for respiratory distress three times in the next five years. At that point, they were prescribed Advair® steroid inhaler, which relieved their symptoms considerably, although they still required a rescue inhaler several times per week. In 2002, they began the administration of ribose, approximately five grams two to three times a day.

[3] = system: patients presenting with chronic obstructive pulmonary disease; assay: Pulmonary function during moderate sub-maximum step exercise, COPD patients; settings: for VD/VT: post ribose five grams four times a day; for VD/VT / VT/RR / VCO2 / VTBTPS (tidal volume) / VT/ti (inspiratory drive): eight weeks; for VT/RR / VCO2 / VTBTPS (tidal volume) / VT/ti (inspiratory drive): post ribose
Method: Four patients presenting with chronic obstructive pulmonary disease were tested for various parameters of pulmonary function as described in Example 1. Baseline measurements of pulmonary function were taken during moderate, sub-maximum step exercise. Patients were instructed to self-administer five grams of ribose four times a day. After eight weeks, pulmonary function was again measured during moderate exercise. In Table II, the units are: • VD=volume of the dead space; VT=tidal volume in liters per minute. The ratio VD/VT can be expressed as ml/ml. This ratio is taken at the nadir of sub-maximal exercise and is a measure of lung function. • VT=tidal volume in liters; RR=breaths per minute • VT=volume in ml at each inspiration, ti=inspiratory time. VT/ti is the inspiratory drive (effort) in ml/second. • VT=tidal volume in liters at constant body temperature pressure status. • VCO2=liters/minute of expired CO2 • RR=breaths per minute. VT/RR=tidal volume in liters per breath.

[4] = system: patient at risk for COPD (No COPD); assay: Pulmonary function during moderate sub-maximum step exercise, patient without COPD; settings: Patient 5, No COPD, post ribose
Method: Four patients presenting with chronic obstructive pulmonary disease were tested for various parameters of pulmonary function as described in Example 1. Baseline measurements of pulmonary function were taken during moderate, sub-maximum step exercise. Patients were instructed to self-administer five grams of ribose four times a day. After eight weeks, pulmonary function was again measured during moderate exercise.
In Table II, the units are: • VD=volume of the dead space; VT=tidal volume in liters per minute. The ratio VD/VT can be expressed as ml/ml. This ratio is taken at the nadir of sub-maximal exercise and is a measure of lung function. • VT=tidal volume in liters; RR=breaths per minute • VT=volume in ml at each inspiration, ti=inspiratory time. VT/ti is the inspiratory drive (effort) in ml/second. • VT=tidal volume in liters at constant body temperature pressure status. • VCO2=liters/minute of expired CO2 • RR=breaths per minute. VT/RR=tidal volume in liters per breath.
Table II illustrates that no one measurement or ratio is predictive of the clinical state of COPD and response to ribose administration. […] One goal of this study was to determine whether the progression of pulmonary dysfunction in such a patient could be slowed or halted over time.

[5] = FIG. 2, single patient, after eight weeks of ribose supplementation, during exercise

O=C[C@H](O)[C@H](O)[C@H](O)CO [D-ribose]
VO2 uptake efficiency (patients having CHF; Post-R: D-ribose 15 grams tid for eight weeks, 2 females and 13 males, Pre-R 1.00 +/− 0.28, p < 0.028): 1.30 +/− 0.28 | O2 pulse (patients having CHF; Post-R: D-ribose 15 grams tid for eight weeks, 2 females and 13 males, Pre-R 7.45 +/− 1.8, p < 0.05): 9.04 +/− 1.9 | Ventilatory efficiency (patients having CHF; Post-R: D-ribose 15 grams tid for eight weeks, 2 females and 13 males, up to anaerobic threshold, Pre-R 50.6 +/− 9.8, p < 0.01): 41.6 +/− 6.4 | improvement of VE (patients having CHF; after eight weeks of D-ribose versus baseline): about 20% | Weber functional class (patients having CHF; based on VO2 at the anaerobic threshold, several of the patients, after eight weeks): reclassified into a higher, that is, less severe, Weber functional class | VE slope ([1]; obese person on nasal oxygen, drug-driven simulated exercise, ribose five grams four times daily, eight weeks, baseline 63.0): 35.2 | need for nasal oxygen ([1]; obese person, ribose five grams four times daily, eight weeks): able to discontinue the oxygen | time of simulated exercise ([1]; obese person, ribose five grams four times daily, eight weeks, baseline 7.43 minutes): 11.44 min | VE slope ([1]; person, coronary artery blockage with stable angina, treadmill, ribose five grams four times a day, eight weeks, baseline 60.2): 45.5 | VE slope ([1]; person, nine minutes of submaximal exercise, ribose five grams four times a day, eight weeks, baseline 55.7): 45.2 | step test subjective rating ([1]; person, second test after eight weeks of ribose, initial test rated good): great | use of rescue inhaler and exercise tolerance [2]: able to discontinue the use of the rescue inhaler and to exercise more without breathlessness symptoms | slope of respiratory rate plotted against tidal volume ([3]; FIG. 1, single patient, after eight weeks of ribose supplementation): decreased slope | VE value [3, 5]: 42 L/min | tidal volume [3, 5]: 0.9 L | VD/VT ([3]; Patient 1 (asthmatic with COPD), nadir of sub-maximal exercise, baseline 0.304): 0.253 ml/ml | VT/RR ([3]; Patient 1, baseline 0.059): 0.065 liters per breath | VCO2 ([3]; Patient 1, baseline 1.038): 1.050 L/min | VTBTPS (tidal volume) ([3]; Patient 1, baseline 1.54): 1.92 L | VT/ti (inspiratory drive) ([3]; Patient 1, baseline 1492): 1827 mL/s | VD/VT ([3]; Patient 2 (COPD), baseline 0.439): 0.303 ml/ml | VT/RR ([3]; Patient 2, baseline 0.036): 0056 liters per breath | VCO2 ([3]; Patient 2, baseline 0.460): 0.460 L/min | VTBTPS (tidal volume) ([3]; Patient 2, baseline 0.830): 1.04 L | VT/ti (inspiratory drive) ([3]; Patient 2, baseline 779): 752 mL/s | VD/VT ([3]; Patient 3 (COPD), baseline 0.198): 0.221 ml/ml | VT/RR ([3]; Patient 3, baseline 0.041): 0.046 liters per breath | VCO2 ([3]; Patient 3, baseline 0.280): 0.454 L/min | VTBTPS (tidal volume) ([3]; Patient 3, baseline 0.614): 0.873 L | VT/ti (inspiratory drive) ([3]; Patient 3, baseline 373): 706 mL/s | VD/VT ([3]; Patient 4 (COPD), baseline 0.475): 0.280 ml/ml | VT/RR ([3]; Patient 4, baseline 0.013): 0.018 liters per breath | VCO2 ([3]; Patient 4, baseline 0.310): 0.814 L/min | VTBTPS (tidal volume) ([3]; Patient 4, baseline 0.550): 0.800 L | VT/ti (inspiratory drive) ([3]; Patient 4, baseline 937): 1590 mL/s | VT/RR ([4]; baseline 0.090): 0.100 liters per breath | VD/VT ([4]; baseline 0.212): 0.221 ml/ml | VCO2 ([4]; baseline 0.990): 1.26 L/min | VTBTPS (tidal volume) ([4]; baseline 1.90): 2.40 L | VT/ti (inspiratory drive) ([4]; baseline 1636): 2232 mL/s
